The text below walks through data of paper PMC2266582 (The Journal of General Physiology, 2005).

Like-named read-outs stand apart in the source and are kept apart here.

The target in data set [1] is T1, KcsA tetramer (Streptomyces lividans, UniProt P0A334).
T1 sequence (P0A334 1-160): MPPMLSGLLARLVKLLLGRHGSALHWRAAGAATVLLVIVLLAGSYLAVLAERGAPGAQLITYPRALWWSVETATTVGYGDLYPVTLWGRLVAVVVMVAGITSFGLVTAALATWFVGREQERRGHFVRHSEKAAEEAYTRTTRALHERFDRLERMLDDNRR
Briefly: Tetramer protection titration of stabilizing cations against high temperature. The class given is binding. To be noted: 100 mM choline Cl.

For data set [2] the following is noted: cited from earlier work; for Pauling crystal radii: ref Bezanilla and Armstrong, 1972, Armstrong, 2003.
In data set [3] the target is T1, KcsA tetramer. Nature of the data set: Temperature dependence of KcsA tetramer monitored by SDS-PAGE. To be noted: for effect on temperature dependence of KcsA tetramer: 5 mM MgCl2 or 5 mM CaCl2 added to 100 mM choline Cl; for thermal stability of KcsA tetramer: 100 mM KCl or 100 mM NaCl, heated 10 min at 60–99°C.
Data set [4] deals with T1, KcsA tetramer. Briefly: Time course of decay of KcsA tetramer at 90°C. The class given is binding.
Data set [5] addresses T1, KcsA tetramer. The class given is binding.
Where [6] appears, read: values determined by Pauling, ref Hille (2001).
The mark [7] stands for this setting: K0.5 (cation concentration at half-maximal stabilization), fit to Eq. 1, heated 10 min at 90°C, 10 mM Hepes-Tris pH 7.4.

`[Ba+2]` [Ba^2+, BaCl2] had an EC50 in data set [1] (K0.5 of tetramer protection titration, heated 10 min at 90°C) of 0.21 µM. Also, the Radius in data set [2] (setting [6]) is recorded as 1.35 Å.

Take `[Ca+2].[Cl-].[Cl-]` [Ca^2+, CaCl2]: the “effect on temperature dependence of KcsA tetramer” value in data set [3] is “small protective effect at temperatures >60 °C”.

In turn, `[Cs+]` [Cs^+, CsCl] registered an EC50 in data set [1] (setting [7]) of 4100 ± 3500 µM. Moreover, in data set [2] (setting [6]), the Radius is listed as 1.69 Å.

Regarding `[K+]` [K^+, KCl], the “thermal stability of KcsA tetramer” value in data set [3] is “fully stable”. For the same compound, in data set [4] (0.1 mM K^+ added to 100 mM choline Cl, 90°C), the “time course of tetramer denaturation” value is reported as “complex slower biphasic decay”. The loss of tetramer entry in data set [4] (100 mM KCl, 30 min of incubation at 90°C) was “virtually no loss of tetramer”. Also, in data set [1] (setting [7]), the EC50 is 1500 ± 2500 µM. The Pauling crystal radii in data set [2] is 1.33 Å. Moreover, the Radius in data set [2] (setting [6]) is 1.33 Å.

In turn, `[Li+]` [Li^+, LiCl] showed an IC50 in data set [5] of 57000 µM.

`[Cl-].[Cl-].[Mg+2]` [Mg^2+, MgCl2]: in data set [3], the “effect on temperature dependence of KcsA tetramer” value is reported as “destabilize KcsA at lower temperatures”.

For the compound `N` [NH4 ^+, NH4Cl], the Radius in data set [2] (estimated by a molecular graphics approach, ref Sun et al. (1997)) is given as 1.8 Å.

On to `[Na+]` [Na^+, NaCl], for which the “thermal stability of KcsA tetramer” value in data set [3] was “progressively lost at temperatures >65 °C”. In addition, the Pauling crystal radii in data set [2] is given as 0.95 Å.

As to `[Rb+]` [Rb^+, RbCl], in data set [1] (setting [7]), the EC50 turned out to be 1700 ± 3300 µM. The Radius in data set [2] (setting [6]) was 1.48 Å.

`[Sr+2]` [Sr^2+, SrCl2] had an EC50 in data set [1] (K0.5 of tetramer protection titration, heated 10 min at 85°C) of 11 µM. In addition, the Radius in data set [2] (setting [6]) is on record as 1.13 Å.

As for `[Tl+]` [Tl^+, Tl acetate], the EC50 in data set [1] (setting [7]) was determined as 1100 µM. Further, the Radius in data set [2] (setting [6]) was 1.40 Å.

Turning to `C[N+](C)(C)CCO.[Cl-]` [choline^+, choline Cl], the “time constant of single exponential decay of tetramer” value in data set [4] (100 mM choline Cl, absence of K^+, 90°C) turned out to be 16.5 s.

The term EC50 denotes the concentration giving half of the maximal effect. The low end stands for a more potent agent, the high end for a less potent agent. As a reminder, the IC50 is the concentration at which inhibition is half-maximal. The low end stands for greater potency, the high end for weaker potency.
